Assay results reported in US7838230B2 (priority 2004, dated 2010).
pIC50: −log10 of the molar value.

Assays:
topoisomerase IV [1] = molecular target: T1, topoisomerase IV (Escherichia coli, UniProt P0AFI2+P20083); experiment: Topoisomerase IV relaxation, microplate assay; type: biochemical
topoisomerase IV [2] = molecular target: T1, topoisomerase IV; experiment: Topoisomerase IV relaxation, gel electrophoresis assay; type: biochemical

T1 sequence (P20083 whole entry): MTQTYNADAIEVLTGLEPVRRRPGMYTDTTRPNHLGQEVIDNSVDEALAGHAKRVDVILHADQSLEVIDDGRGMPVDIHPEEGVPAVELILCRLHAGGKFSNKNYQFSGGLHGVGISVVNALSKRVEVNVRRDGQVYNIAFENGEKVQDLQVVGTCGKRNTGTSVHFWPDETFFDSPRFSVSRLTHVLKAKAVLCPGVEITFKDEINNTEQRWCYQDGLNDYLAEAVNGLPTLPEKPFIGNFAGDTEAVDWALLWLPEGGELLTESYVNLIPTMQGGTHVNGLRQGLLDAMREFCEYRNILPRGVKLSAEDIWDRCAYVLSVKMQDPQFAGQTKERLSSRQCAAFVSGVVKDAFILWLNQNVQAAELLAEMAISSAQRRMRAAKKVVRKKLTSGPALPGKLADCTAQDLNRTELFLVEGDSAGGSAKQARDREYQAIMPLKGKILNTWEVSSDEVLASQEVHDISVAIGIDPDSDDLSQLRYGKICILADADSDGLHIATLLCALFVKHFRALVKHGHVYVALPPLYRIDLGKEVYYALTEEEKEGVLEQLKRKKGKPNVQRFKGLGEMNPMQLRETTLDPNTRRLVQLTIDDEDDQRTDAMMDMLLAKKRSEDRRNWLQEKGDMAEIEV
T1 sequence (P0AFI2 whole entry): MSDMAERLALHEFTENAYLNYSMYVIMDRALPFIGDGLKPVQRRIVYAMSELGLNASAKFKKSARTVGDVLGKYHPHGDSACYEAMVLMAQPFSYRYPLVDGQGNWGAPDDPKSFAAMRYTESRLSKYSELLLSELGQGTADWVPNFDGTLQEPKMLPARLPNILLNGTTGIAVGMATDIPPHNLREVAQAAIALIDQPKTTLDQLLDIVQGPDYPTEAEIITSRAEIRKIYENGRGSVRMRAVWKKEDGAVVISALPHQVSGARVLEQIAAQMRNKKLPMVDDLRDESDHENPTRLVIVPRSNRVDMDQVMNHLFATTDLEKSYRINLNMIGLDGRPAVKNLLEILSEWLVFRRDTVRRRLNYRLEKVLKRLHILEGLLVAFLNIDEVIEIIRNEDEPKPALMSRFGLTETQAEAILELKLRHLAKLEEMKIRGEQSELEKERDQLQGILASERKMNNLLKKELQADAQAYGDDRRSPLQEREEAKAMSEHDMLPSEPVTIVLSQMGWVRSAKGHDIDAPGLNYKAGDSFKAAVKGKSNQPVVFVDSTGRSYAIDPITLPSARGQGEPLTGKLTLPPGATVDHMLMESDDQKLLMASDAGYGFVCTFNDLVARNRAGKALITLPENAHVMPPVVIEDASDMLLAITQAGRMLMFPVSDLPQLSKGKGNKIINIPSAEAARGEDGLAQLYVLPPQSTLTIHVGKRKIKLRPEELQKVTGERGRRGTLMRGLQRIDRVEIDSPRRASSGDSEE

Structure (SMILES)	pIC50 (topoisomerase IV [1]; supercoiled pNO1 substrate, plate assay, read-out: Topo IV Relaxation IC50 Plate assay)	pIC50 (topoisomerase IV [2]; supercoiled pNO1 substrate, gel assay, read-out: Topo IV Relaxation IC50 Gel assay)	pIC50 (topoisomerase IV [1])	pIC50 (topoisomerase IV [2])
CO[C@@H]1[C@@H](OC(=O)c2ccc(C)[nH]2)[C@@H](O)[C@H](Oc2ccc3c(O)c(NC(=O)c4ccc(O)c(CC=C(C)C)c4)c(=O)oc3c2Cl)OC1(C)C [Chlorbiocin]	6.49	6.85	–	–
CCn1cc(C(=O)O)c(=O)c2ccc(C)nc21 [Naladixic acid]	–	–	4.05	4.44
